Experimental findings from US11771647B2, “Eye drops in form of solution comprising benzopyran derivative or pharmaceutically acceptable salt thereof” (HANLIM PHARMACEUTICAL CO., LTD., priority 2018, dated 2023) are described below.

Data set [1] can be described thus: Manufacturability / solubilization of HL217 eye drop solution (appearance). The class given is physicochemical. Conditions: pH 6.5.
Experimental: That is, according to the components and amounts shown in Table 1, HL217, polyethylene glycol 400, glycerin, EDTA, and boric acid were added to the sterile purified water under stirring. The pH was adjusted to 6.5 with an aqueous hydrochloric acid solution and/or an aqueous sodium hydroxide solution; and then sterile purified water was added to the solution, so as to adjust the final volume. The amounts in Table 1 represent the amount of each component per 1 mL of the total volume.
Since the maximum allowable concentration of the U.S. Food and Drug Administration for polyethylene glycol 400 is 50 mg/ml in an eye drop formulation, the amount of polyethylene glycol 400 was adjusted to 1/10 (i.e., 15.0 mg) and correspondingly the amount of glycerin was also adjusted to 1/10 (i.e., 12.0 mg) for evaluating the solubilization of HL217. […] Specifically, according to the components and amounts shown in Table 2, HL217, polyethylene glycol 400, glycerin, EDTA, and boric acid were added to the sterile purified water under stirring. The pH was adjusted to 4.5 with an aqueous hydrochloric acid solution and/or an aqueous sodium hydroxide solution; and then sterile purified water was added to the solution, so as to adjust the final volume. The amounts in Table 2 represent the amount of each component per 1 mL of the total volume. […]
For data set [2], the system named is mice with very low-density lipoprotein receptor (vldlr) gene knockout. As to the kind of experiment: Inhibitory efficacy against vascular leakage in animal model of macular degeneration (FIG. 1). The class given is in vivo. Conditions: single intravitreal administration of 1 μl (50 ng/μl ranibizumab) in each eye. Here is the method: Lucentis™ injection (Norvatis, Basel, Switzerland) was used as a positive control.
The control group was instilled with 1 drop of sterile physiological saline, in each eye of normal mice (n=8), twice daily for 3 weeks. The AMD-induced group was instilled with 1 drop of sterile physiological saline, in each eye of mice with vldlr gene knockout (vldlr −/− mice), twice daily for 3 weeks. The positive control group received 1 μl of Lucentis™ injection (containing 50 ng/μl of ranibizumab) in each eye of vldlr −/− mice, by a single intravitreal administration using a Hamiltion syringe (Hamilton company, Reno, NV, USA).
The following experiments were carried out In order to evaluate any abnormality of retinal blood vessels, such as angiogenesis formation and abnormal blood vessel permeability. […] The isolated retina was placed on a slide, dropped with an aqueous mounting medium (Fluoromount™, Sigma, St. Louis, MO, USA) and then observed under a fluorescence microscope. For quantitative analysis of tracer dye, blood was collected from the heart 10 minutes after the dye injection, perfused with sterile PBS to remove residual dye from the blood vessels, and then the eyes were extracted to isolate the retina. The isolated retina was homogenized with 100 μL of PBS and then centrifuged to obtain the supernatant, in which the amount of FITC-dextran was then measured using a spectrofluorophotometer. […]

Consider `COC(OC)[C@]1(C)Oc2ccc(N)cc2[C@H](N(Cc2ncc[nH]2)c2ccc(Cl)cc2)[C@H]1O` [HL217, (2R,3R,4S)-6-amino-4-[N-(4-chlorophenyl)-N-(1H-imidazol-2-ylmethyl)amino]-3-hydroxy-2-methyl-2-dimethoxymethyl-3,4-dihydro-2H-1-benzopyran], for which the Appearance entry in data set [1] is given as “precipitates were generated”.

B1: Lucentis™ injection: Lucentis™ injection (Norvatis) containing 50 ng/μl of ranibizumab, used as a positive control (antibody, chains of the INN, looked up, V domains shown)
VH: EVQLVESGGGLVQPGGSLRLSCAASGYDFTHYGMNWVRQAPGKGLEWVGWINTYTGEPTYAADFKRRFTFSLDTSKSTAYLQMNSLRAEDTAVYYCAKYPYYYGTSHWYFDVWGQGTLVTVSS
VL: DIQLTQSPSSLSASVGDRVTITCSASQDISNYLNWYQQKPGKAPKVLIYFTSSLHSGVPSRFSGSGSGTDFTLTISSLQPEDFATYYCQQYSTVPWTFGQGTKVEIK
As to B1, the “efficacy (vascular leakage and pathogenic angiogenesis)” value in data set [2] is given as “significant efficacy only at the 2nd week”.
